From the Deep4Chem optical property database
Where “and” joins values, the source holds several entries; their conditions need not be identical. Identical values can stand only once.

Assay: solvent given as SMILES

CCCC1(CCC)c2cc(-c3ccc(OC)cc3)ccc2-c2ccc(-c3ccc4c(c3)C(CCC)(CCC)c3cc(-c5ccc(OC)cc5)ccc3-4)cc21
absorption maximum (in C1CCCCC1): 350 nm

c1cc2c3c(cccc3c1)-c1c-2c2ccccc2c2ccccc12
absorption maximum (in CCCCCCC): 397 nm

COC(=O)c1ccc2ccc3cccc4ccc1c2c34
absorption maximum (in C1CCOC1): 379 nm | absorption maximum (in CC#N): 379 nm | absorption maximum (in CCCCCC): 379 nm | absorption maximum (in CCO): 380 nm | absorption maximum (in CN(C)C=O): 380 nm | absorption maximum (in CO): 379 nm | absorption maximum (in Cc1ccccc1): 381 nm | absorption maximum (in ClCCl): 379 nm

CN(C)c1ccc(N2c3sc4ccccc4c3Sc3sc4ccccc4c32)cc1
absorption maximum (in ClCCl): 319 nm

CN(C)c1cc(F)c(C(=O)c2cc(F)c(N(C)C)cc2F)cc1F
absorption maximum (in CCO): 358 nm

c1cc2c3c(cccc3c1)NC(c1ccc3ccc4cccc5ccc1c3c45)N2
absorption maximum (in CC#N): 341 nm | absorption maximum (in CO): 340 nm | absorption maximum (in CS(C)=O): 344 nm | absorption maximum (in Cc1ccccc1): 344 nm

O=C(c1ccc(C(=C(c2ccccc2)c2ccccc2)c2ccccc2)cc1)c1ccc(-n2c3ccccc3c3ccccc32)cc1
absorption maximum (in C1CCOC1): 340 nm

COc1ccc2c(-c3nc(-c4ccccc4Cl)no3)cc(=O)oc2c1
absorption maximum (in CCO): 354 nm | absorption maximum (in ClC(Cl)Cl): 355 nm

c1ccc2c(c1)ccc1oc3ccc4cc5oc6ccc7ccc8oc9ccc%10ccccc%10c9c8c7c6c5cc4c3c12
absorption maximum (in CC#N): 352 nm

Oc1cc(-c2ccco2)ccc1-c1nc2ccccc2s1
absorption maximum (in ClCCl): 361 nm | absorption maximum (in O): 354 nm

COc1ccc(N(c2ccccc2)c2ccc3ccc4c(N(c5ccccc5)c5ccc(OC)cc5)ccc5ccc2c3c54)cc1
absorption maximum (in ClCCl): 432 nm

CCCCCCCCC1(CCCCCCCC)c2cc3c(cc2-c2sc(-c4ccc(/C=C5\SC(N6CCCCC6)=NC5=O)c5nsnc45)cc21)C(CCCCCCCC)(CCCCCCCC)c1cc(-c2ccc(/C=C4\SC(N5CCCCC5)=NC4=O)c4nsnc24)sc1-3
absorption maximum (in ClC(Cl)Cl): 606 nm

CC1(C)c2cc(C#N)ccc2-c2ccc(N3c4ccccc4Oc4ccccc43)cc21
absorption maximum (in C1CCCCC1): 395 nm | absorption maximum (in C1CCOC1): 380 nm | absorption maximum (in CC#N): 375 nm | absorption maximum (in Cc1ccccc1): 390 nm | absorption maximum (in ClC(Cl)Cl): 389 nm

CCCCc1cc2cccc[n+]2[b-]2c(-c3cccc4[b-]3[n+]3ccccc3cc4CCCC)cccc21
absorption maximum (in C1CCCCC1): 446 nm

CNC(=O)[C@H](C)NC(=O)c1cccc2c1C#Cc1c(N)cccc1OCCCO2
absorption maximum (in CC#N): 347 nm | absorption maximum (in ClCCl): 345 nm

COC(=O)/C=C/C=C/C1=[N+]2C(=C(c3c(C)cc(C)cc3C)c3ccc(/C=C/C=C/C(=O)OC)n3[B-]2(F)F)C=C1
absorption maximum (in ClCCl): 641 nm

O=C1c2cccc3cc(C#CC#Cc4cc5c6c(cccc6c4)C(=O)N(c4ccccc4)C5=O)cc(c23)C(=O)N1c1ccccc1
absorption maximum (in ClCCl): 326 nm

COCCC1=Cc2nc1ccc1[nH]c(cc1CCOC)c1nc(c(NC(C)=O)cc3[nH]c2cc3CCOC)C(CCOC)=C1
absorption maximum (in Cc1ccccc1): 670 nm

COc1cc(OC)cc(C2=C3C(C)=C(I)C(/C=C/c4c[nH]c5ccc([N+](=O)[O-])cc45)=[N+]3[B-](F)(F)n3c(/C=C/c4c[nH]c5ccc([N+](=O)[O-])cc45)c(I)c(C)c32)c1
absorption maximum (in C1CCOC1): 695 nm | absorption maximum (in CS(C)=O): 712 nm | absorption maximum (in ClCCl): 690 nm

c1ccc(N(c2ccccc2)c2ccc3c4cccc5c(N(c6ccccc6)c6ccccc6)ccc(c6cccc2c63)c54)cc1
absorption maximum (in C1CCCCC1): 493 nm | absorption maximum (in C1CCOC1): 489 nm | absorption maximum (in CC#N): 483 nm | absorption maximum (in Cc1ccccc1): 492 nm | absorption maximum (in ClCCl): 490 nm

CCCCCC(=O)c1ccc2c3c(sc2c1)-c1ccccc1P3(=O)c1ccccc1 (configuration not stated)
absorption maximum (in ClCCl): 359 nm and 375 nm

CCN(CC)c1ccc2n1[B-](F)(F)[N+]1=CC(/C=C/C(=O)OC(C)(C)C)=CC1=C2c1c(C)cc(C)cc1C
absorption maximum (in ClCCl): 478 nm

CC(C)(C)NC(=O)c1ccc(C(=O)NC(C)(C)C)c2c1c1c3ccc(Cl)cc3c3cc(Cl)ccc3c1c1c3ccc(Cl)cc3c3cc(Cl)ccc3c21
absorption maximum (in ClCCl): 395 nm

Cc1ccc(/C=C/c2ccccc2-[n+]2noc([O-])c2-c2ccccc2)cc1
absorption maximum (in C1CCCCC1): 316 nm | absorption maximum (in CC#N): 313 nm | absorption maximum (in CCO): 315 nm

COC(=O)C[C@H](Cc1c[nH]c2ccccc12)NC(=O)[C@H](CC(=O)N[C@@H](CC1=CCc2ccccc21)C(=O)OC)NC(=O)[C@H](Cc1c[nH]c2ccccc12)NC(=O)OC(C)(C)C
absorption maximum (in CC#N): 280 nm | absorption maximum (in CCOC(C)=O): 280 nm | absorption maximum (in CO): 280 nm

CCCCc1c2c(nc3ccccc13)-c1cc3c(cc1CC2)-c1nc2ccccc2c(CCCC)c1CC3
absorption maximum (in ClC(Cl)Cl): 372 nm

CCOC(CN1C(=O)C2=C(c3cccs3)N(CC(OCC)OCC)C(=O)C2=C1c1cccs1)OCC
absorption maximum (in ClC(Cl)Cl): 533 nm

c1ccc(-c2cc3ccccc3p2-c2ccccc2)cc1 (configuration not stated)
absorption maximum (in C1CCOC1): 321 nm

CCCCCCN1C(=O)c2cccc3c(-c4ccc(-c5cc(-c6ccc(Cl)cc6)n(-c6ccccc6)n5)s4)ccc(c23)C1=O
absorption maximum (in ClCCl): 402 nm

Cc1cc2nc3[nH]c(=O)n(C)c(=O)c3nc2cc1C
absorption maximum (in CC#N): 379 nm

COc1ccc2c(c1)c(=O)c1ccccc1n2CCCCCC(=O)O
absorption maximum (in O): 422 nm

CCCCCCc1ccc(-n2c3c4cccc(OC)c4nc(-c4ccc(OC)cc4)c3c3c2c2c(-c4ccc(OC)cc4)nc4c(OC)cccc4c2n3-c2ccc(CCCCCC)cc2)cc1
absorption maximum (in ClC(Cl)Cl): 317 nm

CC(=O)c1c(N[C@@H](CC(C)C)C(=O)O)c2ccc(N(C)C)cc2oc1=O
absorption maximum (in ClCCl): 372 nm

O=C(N/N=C/c1ccccc1O)c1cccc2ccccc12
absorption maximum (in C1CCOC1): 334 nm | absorption maximum (in CC#N): 332 nm | absorption maximum (in CC(C)=O): 343 nm | absorption maximum (in CCO): 400 nm | absorption maximum (in CN(C)C=O): 395 nm | absorption maximum (in CS(C)=O): 329 nm | absorption maximum (in ClCCl): 328 nm
